# Assay results from patent US11766468B2, “Method of treating prostate cancer with GnRH antagonist” (priority 2012, dated 2023).
# Square brackets hold non-standard residues; d marks the D form. Peptide text beside a SMILES is read from it. * marks the point of attachment. dPhe(4-NHCONH2) = NC(=O)Nc1ccc(C[C@@H](N)C(=O)O)cc1; Dihydroorotyl(S) = O=C1C[C@@H](C(=O)*)NC(=O)N1; dPhe(4-Cl) = N[C@H](Cc1ccc(Cl)cc1)C(=O)O; Phe(4-NH2) = Nc1ccc(C[C@H](N)C(=O)O)cc1; d2Nal = N[C@H](Cc1ccc2ccccc2c1)C(=O)O; Lys(iPr) = CC(C)NCCCC[C@H](N)C(=O)O; d3Pal = N[C@H](Cc1cccnc1)C(=O)O
# Assay: CS21 safety: treatment-emergent adverse events (MedDRA SOC/PT), crude incidence, also by subgroup
# Format: in vivo
# Method: The safety variables for this study were assessed on the following: the frequency and severity of adverse events (AEs); the presence of clinically significant changes in laboratory parameters (clinical chemistry, hematology and urinalysis); changes in electrocardiograms (ECGs) and vital signs; changes detected by physical examination; and body weight.
# An AE was therefore any unfavorable or unintended sign (including an abnormal laboratory finding), symptom or disease temporally associated with the use of the product, whether or not related to the IMP.
# An adverse drug reaction (ADR) was defined as an AE evaluated by the investigator as being probably or possibly related to treatment with the IMP.
# AEs were graded according to the National Cancer Institute (NCI) Common Terminology Criteria for Adverse Events (CTCAE). In accordance with the CTCAE criteria, AEs were rated on a five-point scale corresponding to mild, moderate, severe, life-threatening or disabling and death. For those AEs not described in the CTCAE, a separate five-point rating scale was used for rating of the intensity of AEs as follows below:
# Safety parameters were evaluated for all patients included in the ITT analysis set, comprising all 610 randomized patients who received at least one dose of study medication. All safety tables include four columns: the three treatment groups described separately, and the pooled degarelix group.
# Adverse events were regarded as ‘treatment-emergent’ if they occurred in the time interval from initial dosing to end-of-study. Adverse events were considered ‘pre-treatment’ if they occurred between screening and the initial injections of IMP. As described above, all AEs were classified according to MedDRA (version 10.0) system organ class (SOC), sorted alphabetically, and by preferred term (PT), in decreasing frequency of occurrence. Treatment-emergent AEs were expressed in terms of intensity (using NCI CTCAE) and relationship to study drug.
# Using the results from the summary of clinical efficacy (SCE) and summary of clinical safety (SCS) findings, different patient subgroups were analyzed. Subgroup distinguishers included race (white, black, and other), age (<65 years, […], and >75 years), weight (<70 kg, ≥70−<90 kg, and ≥90 kg), body mass index (BMI) (≤20, >20 to 30, and >30 kg/m^2)), region (North-America, Western Europe, Central and Eastern Europe and Other), and stage of prostate cancer (e.g., localized, locally advanced, and metastatic).
# [1] = degarelix 240/160 mg, listed as degarelix
# [2] = degarelix Total (pooled), leuprolide 7.5 mg
compound,measurement,setting,value
"CC(=O)N[C@H](Cc1ccc2ccccc2c1)C(=O)N[C@H](Cc1ccc(Cl)cc1)C(=O)N[C@H](Cc1cccnc1)C(=O)N[C@@H](CO)C(=O)N[C@@H](Cc1ccc(NC(=O)[C@@H]2CC(=O)NC(=O)N2)cc1)C(=O)N[C@H](Cc1ccc(NC(N)=O)cc1)C(=O)N[C@@H](CC(C)C)C(=O)N[C@@H](CCCCNC(C)C)C(=O)N1CCC[C@H]1C(=O)N[C@H](C)C(N)=O [Degarelix, D-Alaninamide, N-acetyl-3-(2-naphthalenyl)-D-alanyl-4-chloro-D-phenylalanyl-3-(3-pyridinyl)-D-alanyl-L-seryl-4-[[[(4S)-hexahydro-2,6-dioxo-4-pyrimidinyl]carbonyl]amino]-L phenylalanyl-4-[(aminocarbonyl)amino]-D-phenylalanyl-L leucyl-N6-(1-methylethyl)-L-lysyl-L-prolyl] (Ac-[d2Nal][dPhe(4-Cl)][d3Pal]S[Phe(4-NH2)](Dihydroorotyl(S))[dPhe(4-NHCONH2)]L[Lys(iPr)]P[dA]-NH2)","AEs leading to discontinuation, % of patients",degarelix 240/160 mg,9%
same,"AEs leading to discontinuation, E events",degarelix 240/160 mg,19
same,"AEs leading to discontinuation, N patients",degarelix 240/160 mg,19
same,"Alanine aminotransferase increased, % of patients",degarelix 240/160 mg,( 8%)
same,"All AEs, E = number of adverse events",degarelix 240/160 mg,941
same,"All AEs, N = number of patients",degarelix 240/160 mg,167
same,"Arthralgia, % of patients",degarelix 240/160 mg,( 3%)
same,"Aspartate aminotransferase increased, % of patients",degarelix 240/160 mg,( 5%)
same,"Back pain, % of patients",degarelix 240/160 mg,( 6%)
same,"Blood & lymphatic system disorders, % of patients",degarelix 240/160 mg,( 5%)
same,"Cardiac disorders, % of patients",degarelix 240/160 mg,( 9%)
same,"Chills, % of patients",degarelix 240/160 mg,( 3%)
same,"Constipation, % of patients",degarelix 240/160 mg,( 3%)
same,"Deaths (Grade 5), % of patients",degarelix 240/160 mg,2%
same,"Deaths (Grade 5), E events",degarelix 240/160 mg,6
same,"Deaths (Grade 5), N patients",degarelix 240/160 mg,5
same,"Ear & labyrinth disorders, % of patients",degarelix 240/160 mg,( 1%)
same,"Endocrine disorders, % of patients",degarelix 240/160 mg,(<1%)
same,"Eye disorders, % of patients",degarelix 240/160 mg,( 2%)
same,"Fatigue, % of patients",degarelix 240/160 mg,( 6%)
same,"Gastrointestinal disorders, % of patients",degarelix 240/160 mg,(16%)
same,"General disorders & administration site conditions, % of patients",degarelix 240/160 mg,(50%)
same,"Hepatobiliary disorders, % of patients",degarelix 240/160 mg,(<1%)
same,"Hot flush, % of patients",degarelix 240/160 mg,(26%)
same,"Hypercholesterolaemia, % of patients",degarelix 240/160 mg,( 6%)
same,"Hypertension, % of patients",degarelix 240/160 mg,( 7%)
same,"Immune system disorders, % of patients",degarelix 240/160 mg,(<1%)
same,"Infections & infestations, % of patients",degarelix 240/160 mg,(19%)
same,"Injection site erythema, % of patients",degarelix 240/160 mg,(24%)
same,"Injection site induration, % of patients",degarelix 240/160 mg,( 5%)
same,"Injection site nodule, % of patients",degarelix 240/160 mg,( 6%)
same,"Injection site pain, % of patients",degarelix 240/160 mg,(30%)
same,"Injection site swelling, % of patients",degarelix 240/160 mg,( 7%)
same,"Injury, poisoning & procedural complications, % of patients",degarelix 240/160 mg,( 5%)
same,"Investigations, % of patients",degarelix 240/160 mg,(29%)
same,"Metabolism & nutrition disorders, % of patients",degarelix 240/160 mg,(13%)
same,"Musculoskeletal & connective tissue disorders, % of patients",degarelix 240/160 mg,(18%)
same,"Nausea, % of patients",degarelix 240/160 mg,( 5%)
same,"Neoplasms benign, malignant & unspecified, % of patients",degarelix 240/160 mg,( 6%)
same,"Nervous system disorders, % of patients",degarelix 240/160 mg,(13%)
same,"Psychiatric disorders, % of patients",degarelix 240/160 mg,( 8%)
same,"Renal & urinary disorders, % of patients",degarelix 240/160 mg,(13%)
same,"Reproductive system & breast disorders, % of patients",degarelix 240/160 mg,( 6%)
same,"Respiratory, thoracic & mediastinal disorders, % of patients",degarelix 240/160 mg,( 8%)
same,"Serious AEs, % of patients",degarelix 240/160 mg,12%
same,"Serious AEs, E events",degarelix 240/160 mg,41
same,"Serious AEs, N patients",degarelix 240/160 mg,24
same,"Skin & subcutaneous tissue disorders, % of patients",degarelix 240/160 mg,(10%)
same,"Surgical & medical procedures, % of patients",degarelix 240/160 mg,(<1%)
same,"Urinary tract infection, % of patients",degarelix 240/160 mg,( 1%)
same,"Vascular disorders, % of patients",degarelix 240/160 mg,(32%)
same,"Weight increased, % of patients",degarelix 240/160 mg,(11%)
same,"Hot flush, % of patients",[1],26%
same,"Treatment-emergent adverse events (all AEs), % of patients",[1],83%
same,"Injection site erythema, % of patients",degarelix Total (pooled),(21%)
same,"Injection site induration, % of patients",degarelix Total (pooled),( 5%)
same,"Injection site nodule, % of patients",degarelix Total (pooled),( 5%)
same,"Injection site swelling, % of patients",degarelix Total (pooled),( 7%)
same,"Surgical & medical procedures, % of patients",degarelix Total (pooled),(<1%)
same,"ADRs, % of patients",[2],58%
same,"ADRs, E events",[2],922
same,"ADRs, N patients",[2],238
same,"AEs leading to discontinuation, % of patients",[2],8%
same,"AEs leading to discontinuation, E events",[2],34
same,"AEs leading to discontinuation, N patients",[2],34
same,"Alanine aminotransferase increased, % of patients",[2],( 9%)
same,"All AEs, E = number of adverse events",[2],1878
same,"All AEs, N = number of patients",[2],330
same,"Aspartate aminotransferase increased, % of patients",[2],( 5%)
same,"Back pain, % of patients",[2],( 6%)
same,"Cardiac disorders, % of patients",[2],( 9%)
same,"Chills, % of patients",[2],( 4%)
same,"Constipation, % of patients",[2],( 4%)
same,"Deaths (Grade 5), % of patients",[2],2%
same,"Deaths (Grade 5), E events",[2],11
same,"Deaths (Grade 5), N patients",[2],10
